The values below come from patent publication US7915276B2, “Berberrubine derivatives having antifungal activities” (priority 2006, dated 2011).

The target of assay [1] is T1, chitin synthase 1 of Candida albicans chs2 Δ chs 3 Δ (Candida albicans, UniProt P23316).
T1 construct: Crude enzyme was prepared using the Candida albicans chs2 Δ chs 3 Δ mutant; endogenous in cells; host or cells: Candida albicans chs2Δ/chs2Δ chs3Δ/chs3Δ mutant; 130,000 x g membrane pellet
The experiment in a line: In vitro enzyme assay for chitin synthase 1 of Candida albicans (enzyme 1). In kind it is biochemical. To be noted: relative to polyoxin D (50% inhibitory activity = value 5). As for the experimental part: Crude enzyme was prepared using the Candida albicans chs2 Δ chs 3 Δ mutant (chs2 Δ::hisG/chs2 Δ::hisG chs3 Δ::hisG/chs3 Δ::hisG) strain, which can only produce the chitin synthase 1. The strain was inoculated with the SDA (Sabouraud dextrose agar) culture medium (4% dextrose, 1% peptone, pH 5.6) and cultured at 30° C. for 15-17 hours until the absorbance at 550nm reaches 0.7. The cells were collected and suspended in a 50 mM Tris-HCl (pH 7.5) buffer solution containing 5 mM magnesium acetate. After centrifugation at 8,000×g for 10 minutes, the pellets were suspended in the same Tris-HCl buffer solution. The suspension was divided into aliquots in 50 mL conical test tubes. After adding glass beads, the cells were disrupted by vigorously vortexing with an interval of 30 seconds. The cell residues were removed by centrifuging at 3,000×g for 5 minutes. The supernatant was ultra-centrifuged at 130,000×g for 1 hour. The resultant pellets were collected and suspended in 50 mM Tris-HCl (pH 7.5) containing 33% glycerol, to a final volume of 1.6 mg/g (wet weight) of yeast used. The suspension was divided into aliquots and kept at −70° C. until it is used.
(§1) The inhibitory activities against the chitin synthase 1 of Candida albicans chs2 Δ chs 3 Δ (abbreviated as ‘enzyme 1’) and the chitin synthase 2 of Saccharomyces cerevisiae ECY38-38A(pAS6)(abbreviated as ‘enzyme 2’) was examined for compound Nos. 1 to 70 compound and polyoxin D, a positive control compound.
(§2) The inhibitory activity against the chitin synthase 1 prepared from Candida albicans and the chitin synthase 2 prepared from Saccharomyces cerevisiae were examined as follows. A reaction mixture containing 32 mM Tris-HCl (pH 7.5), 2 mM cobalt acetate, 1.1 mM UDP-[U-^14C]-N-acetyl-d-glucosamine (GlcNAc) (400,000 cpm/μmol), 2 μL of trypsin (0.75 mg/mL), 20 μL of each crude enzyme and 14 μL of each test sample was kept at 30° C. for 15 minutes to activate the enzyme. Then, 2 μL of trypsin inhibitor (1.5 mg/mL) was added and the mixture was kept in an ice bath for 10 minutes to deactivate trypsin. 2 μL of 0.8 M N-acetyl-d-glucosamine was added to a total volume of 50 μL and reaction was performed at 30° C. for 90 minutes. The reaction was stopped using 1 mL of 10% TCA solution and the reaction solution was filtered with a GF/C filter and dried at room temperature. After adding 3 mL of a scintillation cocktail solution, the amount of isotopes was measured using a liquid scintillation counter. Percentage inhibition against each enzyme was calculated by the following Equation 1.
(§3) The control group was not added with a test sample in the reaction mixture and that of the untreated group contained neither the test sample nor the crude enzyme.
(§4) A 50% inhibitory activity of polyoxin D against the enzyme was given the value 5. A compound having the same inhibitory activity as that of polyoxin D at the same concentration was given the value 5. Compounds having the inhibitory activity at 2-fold, 4-fold, 8-fold and 16-fold higher concentrations than that of polyoxin D were given the values of 4, 3, 2 and 1, respectively. On the other hand, compounds having the inhibitory activity at ½, ¼ and ⅛ lower concentrations than that of polyoxin D were given the values of 6, 7 and 8, respectively.

Assay [2] concerns the target T2, chitin synthase 2 of Saccharomyces cerevisiae ECY38-38A(pAS6) (Saccharomyces cerevisiae, UniProt P14180).
T2 construct: made in house; host or cells: Saccharomyces cerevisiae ECY38-38A (chs1-23 chs2::LEU2 cal1/csd2) carrying plasmid pAS6, grown in galactose medium; 130,000 x g membrane pellet
The experiment in a line: In vitro enzyme assay for chitin synthase 2 of Saccharomyces cerevisiae (enzyme 2). In kind it is biochemical. To be noted: relative to polyoxin D (50% inhibitory activity = value 5). As for the experimental part:
Crude enzyme was prepared using the recombinant Saccharomyces cerevisiae ECY38-38A(pAS6) (MATa chs1-23 chs2::LEU2 cal 1/csd 2 ura 3-52 trp 1-1 leu 2-2 pAS6) strain, which can produce the chitin synthase 2 only. The strain was inoculated with the YPG culture medium (1% yeast extract, 2% peptone, 2% galactose) and cultured at 30° C. overnight. Then, it was inoculated with a fresh YPG culture medium and cultured for 15-17 hours until the Absorbance at 550 nm reaches 1.0. The cells were collected and suspended in 50 mM Tris-HCl (pH 7.5) buffer containing 5 mM magnesium acetate. After centrifugation at 8,000×g for 10 minutes, the pellets were suspended in the same Tris-HCl buffer solution. The suspension was divided into aliquots in 50 mL conical test tubes. After adding the glass beads, the cells were disrupted by vigorously vortexing with an interval of 30 seconds. The cell residues were removed by centrifuging at 3,000×g for 5 minutes. The supernatant was ultra-centrifuged at 130,000×g for 1 hour. The resultant pellets were collected and suspended in 50 mM Tris-HCl (pH 7.5) containing 33% glycerol, to a final volume of 1.6 mg/g (wet weight) of yeast used. The suspension was divided into aliquots and kept at −70° C. until it is used.
as §1, §2, §3, §4

T1 sequence (P23316 whole entry, stated change not applied): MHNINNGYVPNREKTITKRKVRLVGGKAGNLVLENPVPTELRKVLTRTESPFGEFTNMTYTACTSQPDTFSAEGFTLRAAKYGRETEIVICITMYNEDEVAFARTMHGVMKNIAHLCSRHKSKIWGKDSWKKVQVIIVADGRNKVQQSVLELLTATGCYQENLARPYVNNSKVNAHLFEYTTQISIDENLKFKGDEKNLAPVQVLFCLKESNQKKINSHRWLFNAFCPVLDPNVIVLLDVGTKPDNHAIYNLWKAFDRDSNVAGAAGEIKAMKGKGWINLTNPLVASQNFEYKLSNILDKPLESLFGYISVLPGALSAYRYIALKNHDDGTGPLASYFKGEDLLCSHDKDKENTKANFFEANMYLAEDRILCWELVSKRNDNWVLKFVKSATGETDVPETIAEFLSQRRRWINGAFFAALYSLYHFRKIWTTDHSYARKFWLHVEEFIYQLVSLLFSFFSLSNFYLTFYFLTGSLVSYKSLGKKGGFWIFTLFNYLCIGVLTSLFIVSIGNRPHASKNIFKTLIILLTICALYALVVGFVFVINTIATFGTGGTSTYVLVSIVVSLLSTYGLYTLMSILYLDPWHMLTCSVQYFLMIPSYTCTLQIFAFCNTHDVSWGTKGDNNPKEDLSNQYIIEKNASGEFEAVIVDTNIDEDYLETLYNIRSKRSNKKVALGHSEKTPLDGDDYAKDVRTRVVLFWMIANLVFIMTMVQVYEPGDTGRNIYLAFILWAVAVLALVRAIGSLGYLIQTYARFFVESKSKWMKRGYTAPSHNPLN
T2 sequence (P14180 whole entry): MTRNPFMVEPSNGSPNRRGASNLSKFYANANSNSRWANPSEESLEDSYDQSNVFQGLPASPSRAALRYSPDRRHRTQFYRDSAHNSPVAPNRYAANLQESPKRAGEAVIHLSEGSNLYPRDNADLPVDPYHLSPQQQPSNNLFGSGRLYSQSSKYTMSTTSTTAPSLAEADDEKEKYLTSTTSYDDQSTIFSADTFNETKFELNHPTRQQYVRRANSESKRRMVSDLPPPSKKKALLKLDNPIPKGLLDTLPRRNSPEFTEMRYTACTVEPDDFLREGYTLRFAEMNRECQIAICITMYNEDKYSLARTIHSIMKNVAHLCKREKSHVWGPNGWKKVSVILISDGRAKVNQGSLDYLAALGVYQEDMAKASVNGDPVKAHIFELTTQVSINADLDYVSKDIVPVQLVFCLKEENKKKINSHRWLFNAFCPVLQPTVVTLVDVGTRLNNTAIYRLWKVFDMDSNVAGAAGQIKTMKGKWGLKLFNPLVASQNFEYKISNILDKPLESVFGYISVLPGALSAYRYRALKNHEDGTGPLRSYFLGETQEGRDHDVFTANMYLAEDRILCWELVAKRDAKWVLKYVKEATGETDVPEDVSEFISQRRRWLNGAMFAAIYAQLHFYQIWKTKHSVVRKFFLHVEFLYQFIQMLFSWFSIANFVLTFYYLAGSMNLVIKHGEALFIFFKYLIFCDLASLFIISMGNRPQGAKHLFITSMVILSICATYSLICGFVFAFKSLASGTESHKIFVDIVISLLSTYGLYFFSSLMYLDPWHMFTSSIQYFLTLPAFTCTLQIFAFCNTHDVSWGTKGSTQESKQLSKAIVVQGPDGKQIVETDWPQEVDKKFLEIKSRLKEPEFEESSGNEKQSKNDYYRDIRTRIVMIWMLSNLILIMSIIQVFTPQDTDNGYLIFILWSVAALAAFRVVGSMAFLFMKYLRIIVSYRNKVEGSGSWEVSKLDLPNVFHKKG

For “13-(3,4,5-Trifluorobenzyl)-9-O-butylberberrubine iodide [Compound No. 27]”, the “Relative activity Enzyme 1” value in assay [1] is 3 (Compounds having the inhibitory activity at 2-fold, 4-fold, 8-fold and 16-fold higher concentrations than that of polyoxin D were given the values of 4, 3, 2 and 1, respectively). The “Relative activity Enzyme 2” value in assay [2] is 6 (compounds having the inhibitory activity at ½, ¼ and ⅛ lower concentrations than that of polyoxin D were given the values of 6, 7 and 8, respectively).
Regarding “13-(3,4,5-Trifluorobenzyl)-9-O-hexylberberrubine chloride [Compound No. 60]”, the “Relative activity Enzyme 1” value in assay [1] is 2 (Compounds having the inhibitory activity at 2-fold, 4-fold, 8-fold and 16-fold higher concentrations than that of polyoxin D were given the values of 4, 3, 2 and 1, respectively). Also, the “Relative activity Enzyme 2” value in assay [2] is listed as 5 (A compound having the same inhibitory activity as that of polyoxin D at the same concentration was given the value 5).
With “13-(3,4,5-Trifluorobenzyl)-9-O-hexylberberrubine iodide [Compound No. 28]”, the “Relative activity Enzyme 1” value in assay [1] is 2 (Compounds having the inhibitory activity at 2-fold, 4-fold, 8-fold and 16-fold higher concentrations than that of polyoxin D were given the values of 4, 3, 2 and 1, respectively). Moreover, the “Relative activity Enzyme 2” value in assay [2] is listed as 5 (A compound having the same inhibitory activity as that of polyoxin D at the same concentration was given the value 5).
On to “13-(3,4,5-Trifluorobenzyl)berberrubine [Compound No. 1]”, for which the “Relative activity Enzyme 1” value in assay [1] was 1 (Compounds having the inhibitory activity at 2-fold, 4-fold, 8-fold and 16-fold higher concentrations than that of polyoxin D were given the values of 4, 3, 2 and 1, respectively). The “Relative activity Enzyme 2” value in assay [2] is 3 (Compounds having the inhibitory activity at 2-fold, 4-fold, 8-fold and 16-fold higher concentrations than that of polyoxin D were given the values of 4, 3, 2 and 1, respectively).
Consider “13-(3,4,5-Trimethoxybenzyl)-9-O-butylberberrubine chloride [Compound No. 62]”, for which, in assay [1], the “Relative activity Enzyme 1” value was 2 (Compounds having the inhibitory activity at 2-fold, 4-fold, 8-fold and 16-fold higher concentrations than that of polyoxin D were given the values of 4, 3, 2 and 1, respectively). In assay [2], the “Relative activity Enzyme 2” value is on record as 5 (A compound having the same inhibitory activity as that of polyoxin D at the same concentration was given the value 5).
For the substance “13-(3,4,5-Trimethoxybenzyl)-9-O-hexylberberrubine chloride [Compound No. 63]”, the “Relative activity Enzyme 1” value in assay [1] was 2 (Compounds having the inhibitory activity at 2-fold, 4-fold, 8-fold and 16-fold higher concentrations than that of polyoxin D were given the values of 4, 3, 2 and 1, respectively). Moreover, the “Relative activity Enzyme 2” value in assay [2] was 4 (Compounds having the inhibitory activity at 2-fold, 4-fold, 8-fold and 16-fold higher concentrations than that of polyoxin D were given the values of 4, 3, 2 and 1, respectively).
As for “13-(3,4,5-Trimethoxybenzyl)-9-O-hexylberberrubine iodide [Compound No. 31]”, in assay [1], the “Relative activity Enzyme 1” value was 2 (Compounds having the inhibitory activity at 2-fold, 4-fold, 8-fold and 16-fold higher concentrations than that of polyoxin D were given the values of 4, 3, 2 and 1, respectively). For the same substance, in assay [2], the “Relative activity Enzyme 2” value is 4 (Compounds having the inhibitory activity at 2-fold, 4-fold, 8-fold and 16-fold higher concentrations than that of polyoxin D were given the values of 4, 3, 2 and 1, respectively).
Take “13-(3,4,5-Trimethoxybenzyl)berberrubine [Compound No. 2]”: the “Relative activity Enzyme 1” value in assay [1] is 1 (Compounds having the inhibitory activity at 2-fold, 4-fold, 8-fold and 16-fold higher concentrations than that of polyoxin D were given the values of 4, 3, 2 and 1, respectively). The “Relative activity Enzyme 2” value in assay [2] is 3 (Compounds having the inhibitory activity at 2-fold, 4-fold, 8-fold and 16-fold higher concentrations than that of polyoxin D were given the values of 4, 3, 2 and 1, respectively).
As to “13-(3,4,5-trifluorobenzyl)-9-O-butylberberrubine chloride [Compound No. 59]”, the “Relative activity Enzyme 1” value in assay [1] is 3 (Compounds having the inhibitory activity at 2-fold, 4-fold, 8-fold and 16-fold higher concentrations than that of polyoxin D were given the values of 4, 3, 2 and 1, respectively). Moreover, in assay [2], the “Relative activity Enzyme 2” value was 5 (A compound having the same inhibitory activity as that of polyoxin D at the same concentration was given the value 5).
For “13-(3,4,5-trimethoxybenzyl)-9-O-butylberberrubine iodide [Compound No. 30]”, the “Relative activity Enzyme 1” value in assay [1] was 2 (Compounds having the inhibitory activity at 2-fold, 4-fold, 8-fold and 16-fold higher concentrations than that of polyoxin D were given the values of 4, 3, 2 and 1, respectively). The “Relative activity Enzyme 2” value in assay [2] is given as 5 (A compound having the same inhibitory activity as that of polyoxin D at the same concentration was given the value 5).
As for “13-(4-Isopropylbenzyl)berberrubine [Compound No. 6]”, the “Relative activity Enzyme 1” value in assay [1] is 2 (Compounds having the inhibitory activity at 2-fold, 4-fold, 8-fold and 16-fold higher concentrations than that of polyoxin D were given the values of 4, 3, 2 and 1, respectively). In addition, in assay [2], the “Relative activity Enzyme 2” value is 4 (Compounds having the inhibitory activity at 2-fold, 4-fold, 8-fold and 16-fold higher concentrations than that of polyoxin D were given the values of 4, 3, 2 and 1, respectively).
As to “13-(4-Trifluoromethoxybenzyl)-9-O-butylberberrubine chloride [Compound No. 65]”, the “Relative activity Enzyme 1” value in assay [1] was 3 (Compounds having the inhibitory activity at 2-fold, 4-fold, 8-fold and 16-fold higher concentrations than that of polyoxin D were given the values of 4, 3, 2 and 1, respectively). Besides, the “Relative activity Enzyme 2” value in assay [2] was 6 (compounds having the inhibitory activity at ½, ¼ and ⅛ lower concentrations than that of polyoxin D were given the values of 6, 7 and 8, respectively).
For “13-(4-Trifluoromethoxybenzyl)-9-O-butylberberrubine iodide [Compound No. 33]”, the “Relative activity Enzyme 1” value in assay [1] was 3 (Compounds having the inhibitory activity at 2-fold, 4-fold, 8-fold and 16-fold higher concentrations than that of polyoxin D were given the values of 4, 3, 2 and 1, respectively). In addition, in assay [2], the “Relative activity Enzyme 2” value was 6 (compounds having the inhibitory activity at ½, ¼ and ⅛ lower concentrations than that of polyoxin D were given the values of 6, 7 and 8, respectively).
As for “13-(4-Trifluoromethoxybenzyl)-9-O-hexylberberrubine chloride [Compound No. 66]”, in assay [1], the “Relative activity Enzyme 1” value is 2 (Compounds having the inhibitory activity at 2-fold, 4-fold, 8-fold and 16-fold higher concentrations than that of polyoxin D were given the values of 4, 3, 2 and 1, respectively). Further, the “Relative activity Enzyme 2” value in assay [2] is 5 (A compound having the same inhibitory activity as that of polyoxin D at the same concentration was given the value 5).
